According to US11447493B2 (Kinnate Biopharma Inc., priority 2018, dated 2022):

Legend:
Experiment in all cases: Radiometric protein kinase assay (33PanQinase), Assay Condition A (thiol containing)
Type in all cases: biochemical
CDK12 wt/CycK = CDK12 wt/CycK (Homo sapiens (Human), UniProt Q9NYV4); conditions: thiol containing (1.2 mM DTT), ATP 0.3 μM
Method: (§1) The IC50 profile of test compounds was determined using three protein kinases.
(§2) The compounds were provided as pre-weighed powders in vials. The compounds were dissolved to 1×10^−02M by adding DMSO. 100 μl of each of the resulting stock solutions were transferred into column 2 of four 96 well “master plates”.
(§3) Prior to testing, the 1×10^−02M stock solutions in column 2 of the master plates were subjected to a serial, semi-logarithmic dilution using 100% DMSO as a solvent. […] Column 1 and 7 were filled with 100% DMSO as controls. Subsequently, 2×10 μl from each well of the serial diluted copy plates were aliquoted with a 96 channel pipettor into two identical sets of “compound dilution plates”.
(§4) In the process, 90 μl H2O were added to each well of a set of compound dilution plates. To minimize potential precipitation, the H2O was added to each plate only a few minutes before the transfer of the compound solutions into the assay plates. Each plate was shaken thoroughly, resulting in a “compound dilution plate/10% DMSO”.
(§5) For the assays, 5 μl solution from each well of the compound dilution plates/10% DMSO were transferred into the assay plates. The final volume of the assay was 50 μl. All compounds were tested at 10 final assay concentrations in the range from 1×10^−04M to 3×10^−09M, in singlicate. The final DMSO concentration in the reaction cocktails was 1% in all cases.
(§6) All protein kinases were expressed in Sf9 insect cells or in E. coli as recombinant GST-fusion proteins or His-tagged proteins, either as full-length or enzymatically active fragments. All kinases were produced from human cDNAs and purified by either GSH-affinity chromatography or immobilized metal. Affinity tags were removed from a number of kinases during purification. The purity of the protein kinases was examined by SDS-PAGE/Coomassie staining, the identity was checked by mass spectroscopy.
(§7) A radiometric protein kinase assay (^33PanQinase® Activity Assay) was used for measuring the kinase activity of the three protein kinases. All kinase assays were performed in 96-well FlashPlates™ from PerkinElmer (Boston, Mass., USA) in a 50 μl reaction volume. The reaction cocktail was pipetted in four steps in the following order: • 20 μl of assay buffer (standard buffer) • 5 μl of ATP solution (in H2O) • 5 μl of test compound (in 10% DMSO) • 20 μl enzyme/substrate mix
(§8) The reaction cocktails were incubated at 30° C. for 60 minutes. The reaction was stopped with 50 μl of 2% (v/v) H3PO4, plates were aspirated and washed two times with 200 μl 0.9% (w/v) NaCl. Incorporation of ^33Pi was determined with a microplate scintillation counter (Microbeta, Wallac). All assays were performed with a BeckmanCoulter/SAGIAN™ Core System.
(§9) The median value of the counts in column 1 (n=8) of each assay plate was defined as “low control”. This value reflects unspecific binding of radioactivity to the plate in the absence of a protein kinase but in the presence of the substrate. The median value of the counts in column 7 of each assay plate (n=8) was taken as the “high control”, i.e. full activity in the absence of any inhibitor. The difference between high and low control was taken as 100% activity.
(§10) As part of the data evaluation the low control value from a particular plate was subtracted from the high control value as well as from all 80 “compound values” of the corresponding plate. The residual activity (in %) for each well of a particular plate was calculated by using the following formula: Res. Activity (%)=100×[(cpm of compound−low control)/(high control−low control)]
(§11) The residual activities for each concentration and the compound IC50 values were calculated using Quattro Workflow V3.1.1 (Quattro Research GmbH, Munich, Germany). […] The fitting method used was a least-squares fit.

CDK2/CycA2 = CDK2/CycA2 (Homo sapiens (Human), UniProt P24941); conditions: thiol containing (1.2 mM DTT), ATP 0.3 μM
Method: as §1, §2, §3, §4, §5, §6, §7, §8, §9, §10, §11

CDK7/CycH/MAT1 = CDK7/CycH/MAT1 (Homo sapiens (Human), UniProt P50613); conditions: thiol containing (1.2 mM DTT), ATP 3.0 μM
Method: as §1, §2, §3, §4, §5, §6, §7, §8, §9, §10, §11

Sequence of CDK12 wt/CycK (Q9NYV4 whole entry): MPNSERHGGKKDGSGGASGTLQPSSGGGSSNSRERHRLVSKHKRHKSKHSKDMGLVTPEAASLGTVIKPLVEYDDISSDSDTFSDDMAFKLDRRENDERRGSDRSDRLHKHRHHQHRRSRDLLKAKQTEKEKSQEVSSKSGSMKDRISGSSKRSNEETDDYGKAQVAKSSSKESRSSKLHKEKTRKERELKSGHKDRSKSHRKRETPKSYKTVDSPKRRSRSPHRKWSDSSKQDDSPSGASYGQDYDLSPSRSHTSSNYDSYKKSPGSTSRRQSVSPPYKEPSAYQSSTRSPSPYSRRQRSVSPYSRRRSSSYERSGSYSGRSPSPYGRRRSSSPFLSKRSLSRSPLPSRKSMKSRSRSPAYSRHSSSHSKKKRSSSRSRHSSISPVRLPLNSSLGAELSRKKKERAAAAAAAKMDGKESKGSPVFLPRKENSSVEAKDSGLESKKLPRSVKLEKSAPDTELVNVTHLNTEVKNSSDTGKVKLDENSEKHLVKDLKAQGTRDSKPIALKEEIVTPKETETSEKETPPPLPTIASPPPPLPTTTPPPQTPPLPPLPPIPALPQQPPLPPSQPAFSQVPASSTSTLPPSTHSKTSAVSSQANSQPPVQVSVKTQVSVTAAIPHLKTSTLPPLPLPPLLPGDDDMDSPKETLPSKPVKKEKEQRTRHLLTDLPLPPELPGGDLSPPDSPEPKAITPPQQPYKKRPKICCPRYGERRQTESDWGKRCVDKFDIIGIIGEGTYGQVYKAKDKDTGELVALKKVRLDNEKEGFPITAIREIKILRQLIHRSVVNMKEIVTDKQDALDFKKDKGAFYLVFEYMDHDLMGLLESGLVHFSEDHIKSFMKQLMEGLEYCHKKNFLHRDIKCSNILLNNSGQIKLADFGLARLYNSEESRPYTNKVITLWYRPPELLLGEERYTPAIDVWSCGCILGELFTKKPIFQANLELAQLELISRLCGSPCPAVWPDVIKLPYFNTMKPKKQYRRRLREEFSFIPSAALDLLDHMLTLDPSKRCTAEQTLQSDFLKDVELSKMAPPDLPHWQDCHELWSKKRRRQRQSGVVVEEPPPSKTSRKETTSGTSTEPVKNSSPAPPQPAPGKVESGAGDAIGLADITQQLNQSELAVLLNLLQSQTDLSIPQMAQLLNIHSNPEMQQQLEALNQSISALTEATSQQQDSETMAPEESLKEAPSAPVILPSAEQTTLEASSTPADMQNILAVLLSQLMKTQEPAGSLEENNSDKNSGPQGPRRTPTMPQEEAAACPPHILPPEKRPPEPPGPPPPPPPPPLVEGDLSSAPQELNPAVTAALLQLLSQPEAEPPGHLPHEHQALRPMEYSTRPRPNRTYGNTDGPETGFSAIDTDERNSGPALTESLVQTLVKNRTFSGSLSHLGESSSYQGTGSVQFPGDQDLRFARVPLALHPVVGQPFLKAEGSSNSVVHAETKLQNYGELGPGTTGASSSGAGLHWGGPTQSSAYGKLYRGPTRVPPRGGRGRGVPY
Sequence of CDK12 wt/CycK (O75909 whole entry partner): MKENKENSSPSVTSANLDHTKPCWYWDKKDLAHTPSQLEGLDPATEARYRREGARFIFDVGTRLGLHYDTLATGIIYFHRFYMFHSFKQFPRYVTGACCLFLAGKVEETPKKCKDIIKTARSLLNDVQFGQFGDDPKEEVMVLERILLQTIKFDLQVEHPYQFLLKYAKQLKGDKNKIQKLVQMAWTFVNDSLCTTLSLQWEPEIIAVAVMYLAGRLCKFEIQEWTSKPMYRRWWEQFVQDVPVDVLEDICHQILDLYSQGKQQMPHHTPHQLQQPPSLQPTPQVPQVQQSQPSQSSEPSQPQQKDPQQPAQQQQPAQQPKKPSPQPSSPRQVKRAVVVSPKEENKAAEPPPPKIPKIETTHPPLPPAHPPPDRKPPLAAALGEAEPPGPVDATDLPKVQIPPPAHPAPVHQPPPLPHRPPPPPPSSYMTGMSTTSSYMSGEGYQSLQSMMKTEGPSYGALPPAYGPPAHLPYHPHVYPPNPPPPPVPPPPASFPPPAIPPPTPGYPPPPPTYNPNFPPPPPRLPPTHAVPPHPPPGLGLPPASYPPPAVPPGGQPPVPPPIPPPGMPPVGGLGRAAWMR
Sequence of CDK7/CycH/MAT1 (P50613 whole entry): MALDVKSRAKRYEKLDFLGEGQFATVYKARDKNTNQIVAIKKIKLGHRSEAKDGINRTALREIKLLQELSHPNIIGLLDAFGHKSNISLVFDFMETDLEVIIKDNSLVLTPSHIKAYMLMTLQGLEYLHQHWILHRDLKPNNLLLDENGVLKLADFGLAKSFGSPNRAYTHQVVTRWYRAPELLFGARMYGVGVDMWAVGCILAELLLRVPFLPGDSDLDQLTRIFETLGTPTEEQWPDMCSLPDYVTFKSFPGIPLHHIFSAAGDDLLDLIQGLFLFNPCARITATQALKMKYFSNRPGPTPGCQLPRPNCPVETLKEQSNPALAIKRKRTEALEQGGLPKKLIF
Sequence of CDK7/CycH/MAT1 (P51946 whole entry partner): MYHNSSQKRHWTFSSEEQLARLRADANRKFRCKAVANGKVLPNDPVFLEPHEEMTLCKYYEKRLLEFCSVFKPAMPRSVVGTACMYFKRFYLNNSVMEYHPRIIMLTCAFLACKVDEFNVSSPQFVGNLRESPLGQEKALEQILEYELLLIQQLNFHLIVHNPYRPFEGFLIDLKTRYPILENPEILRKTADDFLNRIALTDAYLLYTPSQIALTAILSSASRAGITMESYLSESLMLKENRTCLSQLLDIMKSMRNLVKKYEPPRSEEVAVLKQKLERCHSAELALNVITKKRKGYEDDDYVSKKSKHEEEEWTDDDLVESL
Sequence of CDK7/CycH/MAT1 (P51948 whole entry partner): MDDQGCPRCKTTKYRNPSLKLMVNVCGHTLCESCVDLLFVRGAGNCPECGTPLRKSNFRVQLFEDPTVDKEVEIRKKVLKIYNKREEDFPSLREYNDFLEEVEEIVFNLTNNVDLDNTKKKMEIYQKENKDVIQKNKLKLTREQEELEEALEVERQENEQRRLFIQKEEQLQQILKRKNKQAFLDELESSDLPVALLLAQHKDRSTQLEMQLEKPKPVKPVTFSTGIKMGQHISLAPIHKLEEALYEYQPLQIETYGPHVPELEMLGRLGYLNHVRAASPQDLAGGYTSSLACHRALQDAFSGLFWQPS

Row | IC50 (CDK12 wt/CycK) | IC50 (CDK2/CycA2) | IC50 (CDK7/CycH/MAT1) | SMILES
1 | ≤ 0.1 µM | 0.1 to 1 µM | 1 to 10 µM | C=CC(=O)Nc1ccc(C(=O)N2CC[C@@H](Nc3ncc4cc(Cl)ccc4n3)C2)cc1 [Example 25, (R)-N-(4-(3-((6-chloroquinazolin-2-yl)amino)pyrrolidine-1-carbonyl)phenyl)acrylamide]
2 | 0.1 to 1 µM | 10 to 30 µM | 30 to 100 µM | C=CC(=O)Nc1ccc(C(=O)N2CC[C@@H](Nc3ncc4cc(OC)ccc4n3)C2)cc1 [Example 29, (R)-N-(4-(3-((6-methoxyquinazolin-2-yl)amino)pyrrolidine-1-carbonyl)phenyl)acrylamide]
3 | 0.1 to 1 µM | 1 to 10 µM | 1 to 10 µM | C=CC(=O)Nc1ccc(C(=O)N2CC[C@@H](Nc3ncc4cc(C)ccc4n3)C2)cc1 [Example 30, (R)-N-(4-(3-((6-methylquinazolin-2-yl)amino)pyrrolidine-1-carbonyl)phenyl)acrylamide]
4 | ≤ 0.1 µM | 0.1 to 1 µM | 1 to 10 µM | C=CC(=O)Nc1ccc(C(=O)N2CC[C@@H](Nc3ncc4ccc(C)cc4n3)C2)cc1 [Example 32, (R)-N-(4-(3-((7-methylquinazolin-2-yl)amino)pyrrolidine-1-carbonyl)phenyl)acrylamide]
5 | ≤ 0.1 µM | 1 to 10 µM | 1 to 10 µM | C=CC(=O)Nc1ccc(C(=O)N2CC[C@@H](Nc3ncc4ccc(F)cc4n3)C2)cc1 [Example 35, (R)—N-(4-(3-((7-fluoroquinazolin-2-yl)amino)pyrrolidine-1-carbonyl)phenyl)acrylamide]
6 | 0.1 to 1 µM | 0.1 to 1 µM | 1 to 10 µM | C=CC(=O)Nc1ccc(C(=O)N2CC[C@@H](Nc3ncc4ccc(Cl)cc4n3)C2)cc1 [Example 36, (R)—N-(4-(3-((7-chloroquinazolin-2-yl)amino)pyrrolidine-1-carbonyl)phenyl)acrylamide]
7 | 1 to 10 µM | 10 to 30 µM | 30 to 100 µM | CCC(=O)Nc1ccc(C(=O)N2CC[C@@H](Nc3ncc4cc(OC)ccc4n3)C2)cc1 [Example 48, (R)—N-(4-(3-((6-methoxyquinazolin-2-yl)amino)pyrrolidine-1-carbonyl)phenyl)propionamide]

Further lines, the compound ahead of its results:

Row | SMILES | IC50 (CDK12 wt/CycK) | IC50 (CDK2/CycA2) | IC50 (CDK7/CycH/MAT1)
8 | CCC(=O)Nc1ccc(C(=O)N2CCC[C@@H](Nc3ncc4ccc(OC)cc4n3)C2)cc1 [Example 20, (R)-N-(4-(3-((7-methoxyquinazolin-2-yl)amino)piperidine-1-carbonyl)phenyl)propionamide] | 30 to 100 µM | 30 to 100 µM | 30 to 100 µM
9 | CCC(=O)Nc1ccc(C(=O)N2CCC[C@@H](Nc3ncc4ccc(S(C)(=O)=O)cc4n3)C2)cc1 [Example 21, (R)-N-(4-(3-((7-(methylsulfonyl)quinazolin-2-yl)amino)piperidine-1-carbonyl)phenyl)propionamide] | 10 to 30 µM | 10 to 30 µM | 30 to 100 µM
10 | CCC(=O)Nc1ccc(C(=O)N2CCC[C@@H](Nc3ncc4ccc(Cl)cc4n3)C2)cc1 [Example 22, (R)-N-(4-(3-((7-chloroquinazolin-2-yl)amino)piperidine-1-carbonyl)phenyl)propionamide] | 30 to 100 µM | 30 to 100 µM | 30 to 100 µM
11 | CCC(=O)Nc1ccc(C(=O)N2CCC[C@@H](Nc3ncc4ccc(F)cc4n3)C2)cc1 [Example 23, (R)-N-(4-(3-((7-fluoroquinazolin-2-yl)amino)piperidine-1-carbonyl)phenyl)propionamide] | 30 to 100 µM | 30 to 100 µM | 30 to 100 µM
12 | CCC(=O)Nc1ccc(C(=O)N2CCC[C@@H](Nc3ncc4ccc(=O)n(C(C)C)c4n3)C2)cc1 [Example 24, (R)-N-(4-(3-((8-isopropyl-7-oxo-7,8-dihydropyrido[2,3-d]pyrimidin-2-yl)amino)piperidine-1-carbonyl)phenyl)propionamide] | 10 to 30 µM | 10 to 30 µM | 30 to 100 µM
13 | C=CC(=O)Nc1ccc(C(=O)N2CC[C@@H](Nc3ncc4ccncc4n3)C2)cc1 [Example 31, (R)-N-(4-(3-(pyrido[3,4-d]pyrimidin-2-ylamino)pyrrolidine-1-carbonyl)phenyl)acrylamide] | ≤ 0.1 µM | 0.1 to 1 µM | 1 to 10 µM
14 | C=CC(=O)Nc1ccc(C(=O)N2CC[C@@H](Nc3ncc4ccc(C(=O)O)cc4n3)C2)cc1 [Example 38, (R)-2-((1-(4-acrylamidobenzoyl)pyrrolidin-3-yl)amino)quinazoline-7-carboxylic Acid] | ≤ 0.1 µM | ≤ 0.1 µM | 0.1 to 1 µM
15 | C=CC(=O)Nc1ccc(C(=O)N2CC[C@@H](Nc3ncc4ccc(C(N)=O)cc4n3)C2)cc1 [Example 39, (R)-2-((1-(4-acrylamidobenzoyl)pyrrolidin-3-yl)amino)quinazoline-7-carboxamide] | ≤ 0.1 µM | ≤ 0.1 µM | 0.1 to 1 µM
16 | C=CC(=O)Nc1ccc(C(=O)N2CC[C@@H](Nc3ncc4ccc(C(=O)NC)cc4n3)C2)cc1 [Example 40, (R)-2-((1-(4-acrylamidobenzoyl)pyrrolidin-3-yl)amino)-N-methylquinazoline-7-carboxamide] | ≤ 0.1 µM | ≤ 0.1 µM | 0.1 to 1 µM
17 | C=CC(=O)Nc1ccc(C(=O)N2CC[C@@H](Nc3ncc4ccc(C(=O)N(C)C)cc4n3)C2)cc1 [Example 41, (R)-2-((1-(4-acrylamidobenzoyl)pyrrolidin-3-yl)amino)-N,N-dimethylquinazoline-7-carboxamide] | ≤ 0.1 µM | 0.1 to 1 µM | 1 to 10 µM
18 | C=CC(=O)Nc1ccc(C(=O)N2CC[C@@H](Nc3ncc4ccc(=O)[nH]c4n3)C2)cc1 [Example 42, (R)—N-(4-(3-((7-oxo-7,8-dihydropyrido[2,3-d]pyrimidin-2-yl)amino)pyrrolidine-1-carbonyl)phenyl)acrylamide] | ≤ 0.1 µM | 0.1 to 1 µM | 1 to 10 µM
19 | CCC(=O)Nc1ccc(C(=O)N2CC[C@@H](Nc3cc4ccccc4cn3)C2)cc1 [Example 45, (R)—N-(4-(3-(isoquinolin-3-ylamino)pyrrolidine-1-carbonyl)phenyl)propionamide] | 0.1 to 1 µM | 1 to 10 µM | 1 to 10 µM
20 | CCC(=O)Nc1ccc(C(=O)N2CC[C@@H](Nc3ncc4cc(F)ccc4n3)C2)cc1 [Example 46, (R)—N-(4-(3-((6-fluoroquinazolin-2-yl)amino)pyrrolidine-1-carbonyl)phenyl)propionamide] | 0.1 to 1 µM | 1 to 10 µM | 1 to 10 µM
21 | CCC(=O)Nc1ccc(C(=O)N2CC[C@@H](Nc3ncc4cc(Cl)ccc4n3)C2)cc1 [Example 47, (R)—N-(4-(3-((6-chloroquinazolin-2-yl)amino)pyrrolidine-1-carbonyl)phenyl)propionamide] | 0.1 to 1 µM | 1 to 10 µM | 1 to 10 µM
22 | CCC(=O)Nc1ccc(C(=O)N2CC[C@@H](Nc3ncc4cc(C)ccc4n3)C2)cc1 [Example 49, (R)—N-(4-(3-((6-methylquinazolin-2-yl)amino)pyrrolidine-1-carbonyl)phenyl)propionamide] | 1 to 10 µM | 1 to 10 µM | 1 to 10 µM
23 | CCC(=O)Nc1ccc(C(=O)N2CC[C@@H](Nc3ncc4ccncc4n3)C2)cc1 [Example 50, (R)—N-(4-(3-(pyrido[3,4-d]pyrimidin-2-ylamino)pyrrolidine-1-carbonyl)phenyl)propionamide] | 0.1 to 1 µM | 1 to 10 µM | 1 to 10 µM
